In US20090264401A1, “SUBSTITUTED PYRIMIDIN-5-CARBOXAMIDES 281” (AstraZeneca AB, priority 2008, published 2009):

Molecular target: T1, human 11βHSD1 enzyme (Homo sapiens, UniProt P28845)
T1 construct: baculovirus expressed N terminal 6-His tagged full length human 11βHSD1 enzyme; 6-His (N); made in house
Assay: 11βHSD1 cortisone to cortisol conversion, competitive HTRF assay
Format: biochemical
Details: human 11-βHSD; test concentration of 30 μM of compound
Method: The evaluation of compounds described herein was carried out using a baculovirus expressed N terminal 6-His tagged full length human 11βHSD1 enzyme(*1). The enzyme was purified from a detergent solubilised cell lysate, using a copper chelate column. Inhibitors of 11βHSD1 reduce the conversion of cortisone to cortisol, which is identified by an increase in signal, in the above assay.
Compounds to be tested were dissolved in dimethyl sulphoxide (DMSO) to 10 mM and diluted further in assay buffer containing 1% DMSO to 10 fold the final assay concentration. Diluted compounds were then plated into black 384 well plates (Matrix, Hudson N.H., USA).
Fluorescence at 665 nm and 620 nm was measured and the 665 nm:620 nm ratio calculated using an Envision plate reader.

T1 sequence (P28845 whole entry): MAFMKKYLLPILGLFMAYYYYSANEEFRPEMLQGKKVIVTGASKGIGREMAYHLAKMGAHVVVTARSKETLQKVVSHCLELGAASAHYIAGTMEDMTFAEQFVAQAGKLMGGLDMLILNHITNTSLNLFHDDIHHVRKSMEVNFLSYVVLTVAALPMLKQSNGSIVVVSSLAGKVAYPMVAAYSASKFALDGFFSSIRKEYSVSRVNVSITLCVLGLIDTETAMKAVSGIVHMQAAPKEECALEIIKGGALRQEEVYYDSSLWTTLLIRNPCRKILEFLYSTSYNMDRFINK

| Structure (SMILES) | inhibition at 30 µM |
| --- | --- |
| O=C(N[C@H]1C2CC3CC1C[C@@](O)(C3)C2)c1cnc(NC2CCS(=O)(=O)CC2)nc1C1CC1 [Example 68, 4-cyclopropyl-2-[(1,1-dioxidotetrahydro-2H-thiopyran-4-yl)amino]-N-[(2r,5s)-5-hydroxyadamantan-2-yl]pyrimidine-5-carboxamide] | 98.3% |
| O=C(N[C@H]1C2CC3CC1C[C@@](O)(C3)C2)c1cnc(NCCO)nc1C1CC1 [Example 69, 4-cyclopropyl-N-[(2r,5s)-5-hydroxyadamantan-2-yl]-2-[(2-hydroxyethyl)amino]pyrimidine-5-carboxamide] | 102% |
| CS(=O)(=O)N1CCN(c2ncc(C(=O)N[C@H]3C4CC5CC3C[C@@](O)(C5)C4)c(C3CC3)n2)CC1 [Example 70, 4-cyclopropyl-N-[(2r,5s)-5-hydroxyadamantan-2-yl]-2-(4-methylsulfonylpiperazin-1-yl)pyrimidine-5-carboxamide] | 98% |
| O=C(N[C@H]1C2CC3CC1C[C@@](O)(C3)C2)c1cnc(NCCN2CCOCC2)nc1C1CC1 [Example 72, 4-cyclopropyl-N-[(2r,5s)-5-hydroxyadamantan-2-yl]-2-[(2-morpholin-4-ylethyl)amino]pyrimidine-5-carboxamide] | 91.6% |
| C[C@@H]1CN(CCNc2ncc(C(=O)N[C@H]3C4CC5CC3C[C@@](O)(C5)C4)c(C3CC3)n2)C[C@H](C)O1 [Example 73, 4-cyclopropyl-2-({2-[(2R,6S)-2,6-dimethylmorpholin-4-yl]ethyl}amino)-N-[(2r,5s)-5-hydroxyadamantan-2-yl]pyrimidine-5-carboxamide] | 95.2% |
| CN1CCN(CCNc2ncc(C(=O)N[C@H]3C4CC5CC3C[C@@](O)(C5)C4)c(C3CC3)n2)CC1 [Example 74, 4-cyclopropyl-N-[(2r,5s)-5-hydroxyadamantan-2-yl]-2-{[2-(4-methylpiperazin-1-yl)ethyl]amino}pyrimidine-5-carboxamide] | 88.5% |
| O=C(N[C@H]1C2CC3CC1C[C@@](O)(C3)C2)c1cnc(OC2CCC2)nc1C1CC1 [Example 75, 2-(Cyclobutyloxy)-4-cyclopropyl-N-[(2r,5 s)-5-hydroxyadamantan-2-yl]pyrimidine-5-carboxamide] | 98.6% |
| CC(C)Oc1ncc(C(=O)N[C@H]2C3CC4CC2C[C@@](O)(C4)C3)c(C2CC2)n1 [Example 76, 4-cyclopropyl-N-[(2r,5s)-5-hydroxyadamantan-2-yl]-2-isopropoxypyrimidine-5-carboxamide] | 96.1% |
| O=C(N[C@H]1C2CC3CC1C[C@@](O)(C3)C2)c1cnc(OC2CCCC2)nc1C1CC1 [Example 77, 2-(cyclopentyloxy)-4-cyclopropyl-N-[(2r,5s)-5-hydroxyadamantan-2-yl]pyrimidine-5-carboxamide] | 90.9% |
| O=C(N[C@H]1C2CC3CC1C[C@@](O)(C3)C2)c1cnc(OC2COC2)nc1C1CC1 [Example 78, 4-cyclopropyl-N-[(2r,5s)-5-hydroxyadamantan-2-yl]-2-(oxetan-3-yloxy)pyrimidine-5-carboxamide] | 93.1% |
| O=C(c1cnc(N2CCOCC2)nc1C1CC1)N1CCC(c2cccnc2)C1 (centres unmarked) [Example 79, (4-Cyclopropyl-2-morpholinopyrimidin-5-yl)(3-(pyridin-3-yl)pyrrolidin-1-yl)methanone] | 89.7% |
| CC(=O)N1CCN(c2ncc(C(=O)N3CCC(c4cccnc4)C3)c(C3CC3)n2)CC1 (centres unmarked) [Example 80, 1-(4-(4-cyclopropyl-5-(3-(pyridin-3-yl)pyrrolidine-1-carbonyl)pyrimidin-2-yl)piperazin-1-yl)ethanone] | 99.2% |
| C[C@@H]1CN(c2ncc(C(=O)N3CCC(c4cccnc4)C3)c(C3CC3)n2)C[C@H](C)O1 (stereo partly drawn) [Example 81, (4-cyclopropyl-2-((2S,6R)-2,6-dimethylmorpholino)pyrimidin-5-yl)(3-(pyridin-3-yl)pyrrolidin-1-yl)methanone] | 100% |
| O=C(N[C@H]1C2CC3CC1C[C@@](O)(C3)C2)c1cnc(N2CC[S+]([O-])CC2)nc1C1CCC1 [Example 82, 4-Cyclobutyl-N-[(2r,5 s)-5-hydroxyadamantan-2-yl]-2-(1-oxo-1,4-thiazinan-4-yl)pyrimidine-5-carboxamide] | 95.2% |
| O=C(N[C@H]1C2CC3CC1C[C@@](O)(C3)C2)c1cnc(N2CCS(=O)(=O)CC2)nc1C1CCC1 [Example 83, 4-Cyclobutyl-2-(1,1-dioxo-1,4-thiazinan-4-yl)-N-[(2r,5s)-5-hydroxyadamantan-2-yl]pyrimidine-5-carboxamide] | 103% |
| Nc1ncc(C(=O)N[C@H]2C3CC4CC2C[C@@](O)(C4)C3)c(C2CCC2)n1 [Example 84, 2-Amino-4-cyclobutyl-N-[(2r,5s)-5-hydroxyadamantan-2-yl]pyrimidine-5-carboxamide] | 97.5% |

| Structure (SMILES) | inhibition at 30 µM |
| --- | --- |
| O=C(N[C@H]1C2CC3CC1C[C@@](O)(C3)C2)c1cnc(N2CCC2)nc1C1CCC1 [Example 85, 2-Azetidin-1-yl-4-cyclobutyl-N-[(2r,5s)-5-hydroxyadamantan-2-yl]pyrimidine-5-carboxamide] | 88.8% |
| CN(C)c1ncc(C(=O)N[C@H]2C3CC4CC2C[C@@](O)(C4)C3)c(C2CCC2)n1 [Example 86, 4-cyclobutyl-2-(dimethylamino)-N-[(2r,5s)-5-hydroxyadamantan-2-yl]pyrimidine-5-carboxamide] | 97% |
| COCCN1CCN(c2ncc(C(=O)N[C@H]3C4CC5CC3C[C@@](O)(C5)C4)c(C3CCC3)n2)CC1 [Example 87, 4-cyclobutyl-N-[(2r,5s)-5-hydroxyadamantan-2-yl]-2-[4-(2-methoxyethyl)piperazin-1-yl]pyrimidine-5-carboxamide] | 95.7% |
| O=C(N[C@H]1C2CC3CC1C[C@@](O)(C3)C2)c1cnc(NC2CC2)nc1C1CCC1 [Example 88, 4-cyclobutyl-2-(cyclopropylamino)-N-[(2r,5s)-5-hydroxyadamantan-2-yl]pyrimidine-5-carboxamide] | 94.9% |
| O=C(N[C@H]1C2CC3CC1C[C@@](O)(C3)C2)c1cnc(N2CC(F)(F)C2)nc1C1CCC1 [Example 89, 4-cyclobutyl-2-(3,3-difluoroazetidin-1-yl)-N-[(2r,5s)-5-hydroxyadamantan-2-yl]pyrimidine-5-carboxamide] | 95.5% |
| O=C(N[C@H]1C2CC3CC1C[C@@](O)(C3)C2)c1cnc(N2CCOCC2CO)nc1C1CCC1 (some centres unmarked) [Example 90, 4-cyclobutyl-N-[(2r,5s)-5-hydroxyadamantan-2-yl]-2-[3-(hydroxymethyl)morpholin-4-yl]pyrimidine-5-carboxamide] | 100% |
| CNc1ncc(C(=O)N[C@H]2C3CC4CC2C[C@@](O)(C4)C3)c(C2CCC2)n1 [Example 91, 4-cyclobutyl-N-[(2r,5s)-5-hydroxyadamantan-2-yl]-2-(methylamino)pyrimidine-5-carboxamide] | 95.7% |
| C[C@@H]1CN(c2ncc(C(=O)N[C@H]3C4CC5CC3C[C@@](O)(C5)C4)c(C3CCC3)n2)C[C@H](C)O1 [Example 92, 4-cyclobutyl-2-[(2R,6S)-2,6-dimethylmorpholin-4-yl]-N-[(2r,5s)-5-hydroxyadamantan-2-yl]pyrimidine-5-carboxamide] | 97.1% |
| O=C(N[C@H]1C2CC3CC1C[C@@](O)(C3)C2)c1cnc(N2CCOC(CO)C2)nc1C1CCC1 (some centres unmarked) [Example 93, 4-cyclobutyl-N-[(2r,5s)-5-hydroxyadamantan-2-yl]-2-[2-(hydroxymethyl)morpholin-4-yl]pyrimidine-5-carboxamide] | 93.1% |
| CC(C)Nc1ncc(C(=O)N[C@H]2C3CC4CC2C[C@@](O)(C4)C3)c(C2CCC2)n1 [Example 94, 4-cyclobutyl-N-[(2r,5s)-5-hydroxyadamantan-2-yl]-2-(isopropylamino)pyrimidine-5-carboxamide] | 103% |
| CC(C)(CO)Nc1ncc(C(=O)N[C@H]2C3CC4CC2C[C@@](O)(C4)C3)c(C2CCC2)n1 [Example 95, 4-cyclobutyl-N-[(2r,5s)-5-hydroxyadamantan-2-yl]-2-[(2-hydroxy-1,1-dimethylethyl)amino]pyrimidine-5-carboxamide] | 97.3% |
| O=C(N[C@H]1C2CC3CC1C[C@@](O)(C3)C2)c1cnc(NC2CCOCC2)nc1C1CCC1 [Example 96, 4-cyclobutyl-N-[(2r,5s)-5-hydroxyadamantan-2-yl]-2-(tetrahydro-2H-pyran-4-ylamino)pyrimidine-5-carboxamide] | 97.4% |
| O=C(N[C@H]1C2CC3CC1C[C@@](O)(C3)C2)c1cnc(NC2CCC2)nc1C1CCC1 [Example 98, N-[(2r,5s)-5-hydroxyadamantan-2-yl] 4-cyclobutyl-2-(cyclobutylamino)pyrimidine-5-carboxamide] | 97.8% |
| C[C@@H]1CN(c2ncc(C(=O)N[C@H]3C4CC5CC3C[C@@](O)(C5)C4)c(C3CCC3)n2)C[C@H](C)N1 [Example 99, 4-cyclobutyl-2-[(3R,5S)-3,5-dimethylpiperazin-1-yl]-N-[(2r,5s)-5-hydroxyadamantan-2-yl]pyrimidine-5-carboxamide] | 93.3% |
| C[C@@H]1CN(c2ncc(C(=O)N[C@H]3C4CC5CC3C[C@@](O)(C5)C4)c(C3CCC3)n2)C[C@@H](C)O1 [Example 101, 4-cyclobutyl-2-[(2R,6R)-2,6-dimethylmorpholin-4-yl]-N-[(2r,5s)-5-hydroxyadamantan-2-yl]pyrimidine-5-carboxamide] | 102% |
| O=C(N[C@H]1C2CC3CC1C[C@@](O)(C3)C2)c1cnc(NC2CCCC2)nc1C1CCC1 [Example 102, 4-cyclobutyl-2-(cyclopentylamino)-N-[(2r,5s)-5-hydroxyadamantan-2-yl]pyrimidine-5-carboxamide] | 93.8% |
